These results are taken from PMC12292628, “Inhibitory Effects of 3-(4-Hydroxy-3-methoxyphenyl) Propionic Acid on Amyloid β-Peptide Aggregation In Vitro” (Biomedicines, 2025).

This assay addresses T1, Aβ42 (amyloid-β protein) (Homo sapiens, UniProt P05067).
T1 construct: gene APP; synthetic Aβ42 peptide, low-molecular-weight (LMW, monomeric) Aβ42
Nature of the assay: ThT fluorescence aggregation assay with purified LMW Aβ[…] (no seeds); electron microscopy. It counts as biochemical.

T1 sequence (P05067 672-713 limits assumed): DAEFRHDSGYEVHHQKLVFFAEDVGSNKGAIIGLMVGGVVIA

By EC50 is commonly meant the concentration giving half of the maximal effect. In the case of `COc1cc(CCC(=O)O)ccc1O` [HMPA, 3-(4-Hydroxy-3-methoxyphenyl) propionic acid], the EC50 came out at 6.37 mM.
